Like-named read-outs stand apart in the source and are kept apart here.
System: HeLa cells
Assay: HeLa cell 24 hr ploidy assay (DNA content)
Assay type: cell-based
Settings: 4N ploidy, average, read-out: 24h_4NPloidy EC50_IP (uM Avg)
Procedure: HeLa cell 24 hr ploidy assay protocol
The purpose of this assay is to evaluate the ability of selected individual compounds to induce Deoxyribonucleic acid (DNA) content (ploidy) in cells through failed cell division. Cell cycle analysis is a rapid and efficient way to evaluate the status of DNA content (ploidy) of a given cell. HeLa cells (1×10^4 HeLa cells/well) in 100 ul of media (MEM+10% FBS) were plated in 96-well plates (Packard View) and cultured for 24 hrs at 37° C. maintained in a 5% CO2 atmosphere. […] The compounds were serially diluted in DMSO (0.25% final concentration). The cells were fixed (3.7% Formaldehyde and 1% glutaraldehyde) and permeabilized (1×PBS with 1% BSA and 0.2% Triton X-100) in preparation for nuclear staining. The well plates were stained for 45 minutes at RT in the dark using Hoechest 33342 nuclear stain at 0.5 ug.ml (Stock of 10 mg/ml, Invitrogen, CA, Cat #H3570). The nuclear stain was removed by aspiration and the cells were washed with wash buffer. A Cellomics Array Scan Vti plate reader was used to acquire the DNA ploidy data of the cells using Cell Cycle bioapplication. Numbers for each of “valid cell count/well”, “% of 4N cells” and “% of >4Ncells” were calculated with the assistance of an Activity Base 5.1ca software and dose curves were generated using an XLFit software. With XLFit, final EC50 IP and EC50 transit values, as well as the Max and Min, were calculated for each curve.

SMILES: COc1cnc2c(Oc3ccc(Nc4nnc(-c5cccc(C#N)c5)c5ccccc45)cc3)ccnc2c1 [Example 29, 3-(4-(4-(7-methoxy-1,5-naphthyridin-4-yloxy)phenylamino)phthalazin-1-yl)benzonitrile]
- EC50 (Homo sapiens, HeLa): 0.442 µM

SMILES: COc1cnc2c(Oc3ccc(Nc4nnc(-c5nccn5C)c5ccccc45)cc3)ccnc2c1 [Example 30, N-(4-(7-methoxy-1,5-naphthyridin-4-yloxy)phenyl)-4-(1-methyl-1H-imidazol-2-yl)phthalazin-1-amine]
- EC50 (Homo sapiens, HeLa, HeLa cells): > 1.2 µM

SMILES: COc1cnc2c(Oc3ccc(Nc4nnc(C#CC(C)(C)C)c5ccccc45)cc3)ccnc2c1 [Example 31, 4-(3,3-dimethylbut-1-ynyl)-N-(4-(7-methoxy-1,5-naphthyridin-4-yloxy)phenyl)phthalazin-1-amine]
- EC50 (Homo sapiens, HeLa, HeLa cells): 0.045 µM

SMILES: COc1cnc2c(Oc3ccc(Nc4nnc(N5CCCCCC5)c5ccccc45)cc3)ccnc2c1 [Example 32, 4-(azepan-1-yl)-N-(4-(7-methoxy-1,5-naphthyridin-4-yloxy)phenyl)phthalazin-1-amine]
- EC50 (Homo sapiens, HeLa): 0.036 µM

SMILES: Clc1ccc(-c2nnc(Nc3ccc(Sc4ccnc5cccnc45)cc3)c3ccccc23)cc1 [Example 33, N-(4-(1,5-naphthyridin-4-ylthio)phenyl)-4-(4-chlorophenyl)phthalazin-1-amine]
- EC50 (HeLa cells): 0.002 µM

SMILES: COc1ccc(-c2nnc(Nc3ccc(Oc4ccnc5cc(OC)cnc45)cc3)c3ccccc23)cc1 [Example 37, N-(4-(7-methoxy-1,5-naphthyridin-4-yloxy)phenyl)-4-(4-methoxyphenyl)phthalazin-1-amine]
- EC50 (Homo sapiens, HeLa): 0.052 µM

SMILES: COc1cnc2c(Oc3ccc(Nc4nnc(-c5ccc(C(C)(C)C)cc5)c5ccccc45)cc3)ccnc2c1 [Example 38, 4-(4-tert-butylphenyl)-N-(4-(7-methoxy-1,5-naphthyridin-4-yloxy)phenyl)phthalazin-1-amine]
- EC50 (Homo sapiens, HeLa): 0.08 µM

SMILES: COc1ccc2c(Oc3ccc(Nc4nnc(-c5ccc(C(F)(F)F)cc5)c5ccccc45)cc3)c(F)cnc2c1 [Example 39, N-(4-(3-fluoro-7-methoxyvquinolin-4-yloxy)phenyl)-4-(4-(trifluoromethyl)phenyl) phthalazin-1-amine]
- EC50 (Homo sapiens, HeLa, HeLa cells): ≥ 1.2 µM

SMILES: COc1cnc2c(Nc3ccc(Nc4nnc(-c5ccccc5)c5ccccc45)cc3)ccnc2c1 [Example 40, N′-(7-methoxy-1,5-naphthyridin-4-yl)-N4-(4-phenylphthalazin-1-yl)benzene-1,4-diamine]
- EC50 (Homo sapiens, HeLa): 0.07 µM

SMILES: COc1cnc2c(Oc3ccc(Nc4nnc(-c5ccccc5)c5ccccc45)cn3)ccnc2c1 [Example 41, N-(6-(7-methoxy-1,5-naphthyridin-4-yloxy)pyridin-3-yl)-4-phenylphthalazin-1-amine]
- EC50 (Homo sapiens, HeLa, HeLa cells): 0.195 µM

SMILES: c1ccc(-c2nnc(Nc3ccc(Oc4ccnc5cc(N6CCOCC6)ccc45)cc3)c3ccccc23)cc1 [Example 42, N-(4-(7-Morpholinoquinolin-4-yloxy)phenyl)-4-phenylphthalazin-1-amine]
- EC50 (Homo sapiens, HeLa, HeLa cells): 0.007 µM

SMILES: CC(=O)Nc1ccc2nccc(Oc3ccc(Nc4nnc(-c5ccccc5)c5ccccc45)cc3)c2c1 [Example 43, N-(4-(4-(4-Phenylphthalazin-1-ylamino)phenoxy)quinolin-6-yl)acetamide]
- EC50 (Homo sapiens, HeLa, HeLa cells): 0.025 µM

SMILES: N#Cc1cnc2c(Oc3ccc(Nc4nnc(-c5ccccc5)c5ccccc45)cc3)ccnc2c1 [Example 44, 8-(4-(4-phenylphthalazin-1-ylamino)phenoxy)-1,5-naphthyridine-3-carbonitrile]
- EC50 (Homo sapiens, HeLa, HeLa cells): > 1.2 µM

SMILES: Cn1cc(-c2ccc3nccc(Oc4ccc(Nc5nnc(-c6ccccc6)c6ccccc56)cc4)c3c2)cn1 [Example 45, N-(4-(6-(1-Methyl-1H-pyrazol-4-yl)quinolin-4-yloxy)phenyl)-4-phenylphthalazin-1-amine]
- EC50 (Homo sapiens, HeLa, HeLa cells): 0.056 µM

SMILES: NC(=O)c1cc2nccc(Oc3ccc(Nc4nnc(-c5ccccc5)c5ccccc45)cc3)c2s1 [Example 46, 7-(4-(4-phenylphthalazin-1-ylamino)phenoxy)thieno[3,2-b]pyridine-2-carboxamide]
- EC50 (Homo sapiens, HeLa): 0.171 µM

SMILES: COc1ccc(F)cc1-c1nnc(Nc2ccc(Oc3ccnc4cc(C(N)=O)ccc34)cc2)c2ccccc12 [Example 47, 4-(4-(4-(5-fluoro-2-methoxyphenyl)phthalazin-1-ylamino)phenoxy)quinoline-7-carb oxamide]
- EC50 (Homo sapiens, HeLa): > 1.2 µM

SMILES: FC(F)Oc1cnc2c(Sc3ccc(Nc4nnc(-c5ccccc5)c5ccccc45)cc3)ccnc2c1 [Example 387, N-(4-(7-(difluoromethoxy)-1,5-naphthyridin-4-ylthio)phenyl)-4-phenylphthalazin-1-amine]
- EC50 (Homo sapiens, HeLa, HeLa cells): 0.12 µM

SMILES: Oc1ccc2nccc(Sc3ccc(Nc4nnc(-c5ccc(Cl)cc5)c5ccccc45)cc3)c2c1 [Example 388, 4-(4-(4-(4-Chlorophenyl)phthalazin-1-ylamino)phenylthio)quinolin-6-ol]
- EC50 (Homo sapiens, HeLa, HeLa cells): 0.013 µM

SMILES: COCCOCCOc1ccc2nccc(Sc3ccc(Nc4nnc(-c5ccc(Cl)cc5)c5ccccc45)cc3)c2c1 [Example 389, 4-(4-Chlorophenyl)-N-(4-(6-(2-(2-methoxyethoxy)ethoxy)quinolin-4-ylthio)phenyl) phthalazin-1-amine]
- EC50 (Homo sapiens, HeLa, HeLa cells): 0.055 µM

SMILES: CS(=O)(=O)CCOc1ccc2nccc(Sc3ccc(Nc4nnc(-c5ccc(Cl)cc5)c5ccccc45)cc3)c2c1 [Example 390, 4-(4-Chlorophenyl)-N-(4-(6-(2-(methylsulfonyl)ethoxy)quinolin-4-ylthio)phenyl) phthalazin-1-amine]
- EC50 (Homo sapiens, HeLa, HeLa cells): > 1.2 µM

SMILES: Clc1ccc(-c2nnc(Nc3ccc(Sc4ccnc5ccoc45)cc3)c3ccccc23)nc1 [Example 391, 4-(5-Chloropyridin-2-yl)-N-(4-(furo[3,2-b]pyridin-7-ylthio)phenyl)phthalazin-1-amine]
- EC50 (Homo sapiens, HeLa, HeLa cells): 0.032 µM

SMILES: COc1cc2nccc(Oc3ccc(Nc4nnc(-c5ccccc5)c5ccccc45)cc3)c2cc1C#N [Example 392, 7-Methoxy-4-(4-(4-phenylphthalazin-1-ylamino)phenoxy)quinoline-6-carbonitrile]
- EC50 (Homo sapiens, HeLa, HeLa cells): 0.085 µM

SMILES: COCCOc1cc2nccc(Oc3ccc(Nc4nnc(-c5ccccc5)c5ccccc45)cc3)c2cc1OC [Example 393, N-(4-(6-Methoxy-7-(2-methoxyethoxy)quinolin-4-yloxy)phenyl)-4-phenylphthalazin-1-amine]
- EC50 (Homo sapiens, HeLa, HeLa cells): 0.001 µM

SMILES: COc1cnc2c(Oc3ccc(Nc4nnc(-c5ccc(Cl)c(OCCS(C)(=O)=O)c5)c5ccccc45)cc3)ccnc2c1 [Example 394, 4-(4-Chloro-3-(2-(methylsulfonyl)ethoxy)phenyl)-N-(4-(7-methoxy-1,5-naphthyridin-4-yloxy)phenyl)phthalazin-1-amine]
- EC50 (Homo sapiens, HeLa, HeLa cells): 0.045 µM

SMILES: COCCOc1cc(-c2nnc(Nc3ccc(Oc4ccnc5cc(OC)cnc45)cc3)c3ccccc23)ccc1C [Example 395, N-(4-(7-Methoxy-1,5-naphthyridin-4-yloxy)phenyl)-4-(3-(2-methoxyethoxy)-4-methylphenyl)phthalazin-1-amine]
- EC50 (Homo sapiens, HeLa, HeLa cells): 0.023 µM

SMILES: COc1cnc2c(Sc3ccc(Nc4nnc(-c5ccn(C)c(=O)c5)c5ccccc45)cc3)ccnc2c1 [Example 396, 4-(4-(4-(7-Methoxy-1,5-naphthyridin-4-ylthio)phenylamino)phthalazin-1-yl)-1-methylpyridin-2(1 H)-one]
- EC50 (Homo sapiens, HeLa, HeLa cells): 0.008 µM

SMILES: Cc1ccc(-c2nnc(Nc3ccc(Sc4ccnc5ccoc45)cc3)c3ccccc23)cc1F [Example 398, 4-(3-Fluoro-4-methylphenyl)-N-(4-(furo[3,2-b]pyridin-7-ylthio)phenyl)phthalazin-1-amine]
- EC50 (Homo sapiens, HeLa, HeLa cells): 0.009 µM

SMILES: Nc1ccc2nccc(Sc3ccc(Nc4nnc(-c5ccccc5)c5ccccc45)cc3)c2c1 [Example 399, N-(4-(6-Aminoquinolin-4-ylthio)phenyl)-4-phenylphthalazin-1-amine]
- EC50 (Homo sapiens, HeLa, HeLa cells): 0.019 µM

SMILES: COc1cnc2c(Sc3ccc(Nc4nnc(C5=CCNCC5)c5ccccc45)cc3)ccnc2c1 [Example 401, N-(4-(7-Methoxy-1,5-naphthyridin-4-ylthio)phenyl)-4-(1,2,3,6-tetrahydropyridin-4-yl)phthalazin-1-amine]
- EC50 (Homo sapiens, HeLa, HeLa cells): 0.187 µM

SMILES: COc1cnc2c(Sc3ccc(Nc4nnc(OC)c5ccccc45)cc3)ccnc2c1 [Example 402, 4-Methoxy-N-(4-(7-methoxy-1,5-naphthyridin-4-ylthio)phenyl)phthalazin-1-amine]
- EC50 (Homo sapiens, HeLa, HeLa cells): 0.066 µM

SMILES: COc1cnc2c(Sc3ccc(Nc4nnc(OCCC5CCCCN5)c5ccccc45)cc3)ccnc2c1 (stereo not shown) [Example 403, N-(4-(7-Methoxy-1,5-naphthyridin-4-ylthio)phenyl)-4-(2-(piperidin-2-yl)ethoxy)phthalazin-1-amine]
- EC50 (Homo sapiens, HeLa, HeLa cells): 0.037 µM

SMILES: COc1cnc2c(Sc3ccc(Nc4nnc(C#N)c5ccccc45)cc3)ccnc2c1 [Example 404, 4-(4-(7-Methoxy-1,5-naphthyridin-4-ylthio)phenylamino)phthalazine-1-carbonitrile]
- EC50 (Homo sapiens, HeLa, HeLa cells): 0.063 µM

SMILES: O=c1ccc2nccc(Sc3ccc(Nc4nnc(-c5ccc(Cl)cn5)c5ccccc45)cc3)c2[nH]1 [Example 405, 8-(4-(4-(5-Chloropyridin-2-yl)phthalazin-1-ylamino)phenylthio)-1,5-naphthyridin-2(1H)-one]
- EC50 (Homo sapiens, HeLa, HeLa cells): 0.036 µM

SMILES: COc1cc2nccc(Sc3ccc(Nc4nnc(-c5ccc(Cl)cc5)c5ccccc45)cc3)c2[nH]c1=O [Example 406, 8-(4-(4-(4-Chlorophenyl)phthalazin-1-ylamino)phenylthio)-3-methoxy-1,5-naphthyridin-2(1H)-one]
- EC50 (Homo sapiens, HeLa, HeLa cells): < 0.0023 µM
